# ChEMBL document CHEMBL5724914, “Linking interpersonal differences in gut microbiota composition and drug biotransformation activity” (2024)
# Settings: human gut metagenome, 24 h, 2 µM
# Further: call rule not given here.
row,Bacterial Biotransformation,SMILES
1,Compound NOT metabolized,CN1CCC(OC(c2ccccc2)c2ccccc2)CC1
2,Compound NOT metabolized,CCOC(=O)[C@H](CCc1ccccc1)N[C@@H](C)C(=O)N1Cc2ccccc2C[C@H]1C(=O)O
3,Compound NOT metabolized,CCN1CCCC1CNC(=O)c1cc(S(=O)(=O)CC)c(N)cc1OC (stereo not given) [AMISULPRIDE]
4,Compound NOT metabolized,CC(C)NCC(O)COc1ccc(CC(N)=O)cc1 (stereo not given) [ATENOLOL]

# Assay: (§1) The drug is tested on WLS-069 corresponding to human gut metagenome with ENA study accession number: PRJEB37062 and ENA sample accession number: ERS12561748 for biotransformation under anaerobic condition. The drug concentrations were measured over 9 timepoints collected between 0 and 24 hours of incubation by liquid-chromatography-coupled mass spectrometry (LC–MS)
# Settings: 2 µM
row,Bacterial Biotransformation,SMILES
1,Compound NOT metabolized,CN1CCC(OC(c2ccccc2)c2ccccc2)CC1
2,Compound metabolized,CCOC(=O)[C@H](CCc1ccccc1)N[C@@H](C)C(=O)N1Cc2ccccc2C[C@H]1C(=O)O
3,Compound NOT metabolized,CCN1CCCC1CNC(=O)c1cc(S(=O)(=O)CC)c(N)cc1OC (stereo not given) [AMISULPRIDE]
4,Compound metabolized,CC(C)NCC(O)COc1ccc(CC(N)=O)cc1 (stereo not given) [ATENOLOL]

# Settings: human gut metagenome, 24 h, 2 µM
# Remark: another data set of the same source
row,Bacterial Biotransformation,SMILES
1,Compound metabolized,CN1CCC(OC(c2ccccc2)c2ccccc2)CC1
2,Compound metabolized,CCOC(=O)[C@H](CCc1ccccc1)N[C@@H](C)C(=O)N1Cc2ccccc2C[C@H]1C(=O)O
3,Compound NOT metabolized,CCN1CCCC1CNC(=O)c1cc(S(=O)(=O)CC)c(N)cc1OC (stereo not given) [AMISULPRIDE]
4,Compound NOT metabolized,CC(C)NCC(O)COc1ccc(CC(N)=O)cc1 (stereo not given) [ATENOLOL]

# Settings: human gut metagenome, 24 h, 2 µM
# Remark: another data set of the same source
row,Bacterial Biotransformation,SMILES
1,Compound NOT metabolized,CN1CCC(OC(c2ccccc2)c2ccccc2)CC1
2,Compound metabolized,CCOC(=O)[C@H](CCc1ccccc1)N[C@@H](C)C(=O)N1Cc2ccccc2C[C@H]1C(=O)O
3,Compound metabolized,CCN1CCCC1CNC(=O)c1cc(S(=O)(=O)CC)c(N)cc1OC (stereo not given) [AMISULPRIDE]
4,Compound metabolized,CC(C)NCC(O)COc1ccc(CC(N)=O)cc1 (stereo not given) [ATENOLOL]

# Settings: human gut metagenome, 24 h, 2 µM
# Remark: another data set of the same source
row,Bacterial Biotransformation,SMILES
1,Compound metabolized,CN1CCC(OC(c2ccccc2)c2ccccc2)CC1
2,Compound metabolized,CCOC(=O)[C@H](CCc1ccccc1)N[C@@H](C)C(=O)N1Cc2ccccc2C[C@H]1C(=O)O
3,Compound NOT metabolized,CCN1CCCC1CNC(=O)c1cc(S(=O)(=O)CC)c(N)cc1OC (stereo not given) [AMISULPRIDE]
4,Compound NOT metabolized,CC(C)NCC(O)COc1ccc(CC(N)=O)cc1 (stereo not given) [ATENOLOL]

# Assay: as §1, with “Z-025” for “WLS-069”, “rabbit” for “human”, “ERS12561824” for “ERS12561748”
# Settings: 2 µM
row,Bacterial Biotransformation,SMILES
1,Compound metabolized,CN1CCC(OC(c2ccccc2)c2ccccc2)CC1
2,Compound NOT metabolized,CCOC(=O)[C@H](CCc1ccccc1)N[C@@H](C)C(=O)N1Cc2ccccc2C[C@H]1C(=O)O
3,Compound NOT metabolized,CCN1CCCC1CNC(=O)c1cc(S(=O)(=O)CC)c(N)cc1OC (stereo not given) [AMISULPRIDE]
4,Compound NOT metabolized,CC(C)NCC(O)COc1ccc(CC(N)=O)cc1 (stereo not given) [ATENOLOL]

# Settings: human gut metagenome, 24 h, 2 µM
# Remark: another data set of the same source
row,Bacterial Biotransformation,SMILES
1,Compound metabolized,CN1CCC(OC(c2ccccc2)c2ccccc2)CC1
2,Compound NOT metabolized,CCOC(=O)[C@H](CCc1ccccc1)N[C@@H](C)C(=O)N1Cc2ccccc2C[C@H]1C(=O)O
3,Compound NOT metabolized,CCN1CCCC1CNC(=O)c1cc(S(=O)(=O)CC)c(N)cc1OC (stereo not given) [AMISULPRIDE]
4,Compound NOT metabolized,CC(C)NCC(O)COc1ccc(CC(N)=O)cc1 (stereo not given) [ATENOLOL]

# Settings: human gut metagenome, 24 h, 2 µM
# Remark: another data set of the same source
row,Bacterial Biotransformation,SMILES
1,Compound metabolized,CN1CCC(OC(c2ccccc2)c2ccccc2)CC1
2,Compound NOT metabolized,CCOC(=O)[C@H](CCc1ccccc1)N[C@@H](C)C(=O)N1Cc2ccccc2C[C@H]1C(=O)O
3,Compound NOT metabolized,CCN1CCCC1CNC(=O)c1cc(S(=O)(=O)CC)c(N)cc1OC (stereo not given) [AMISULPRIDE]
4,Compound NOT metabolized,CC(C)NCC(O)COc1ccc(CC(N)=O)cc1 (stereo not given) [ATENOLOL]

# Assay: as §1, with “Z-030” for “WLS-069”, “mouse” for “human”, “ERS12561829” for “ERS12561748”
# Settings: 2 µM
row,Bacterial Biotransformation,SMILES
1,Compound NOT metabolized,CN1CCC(OC(c2ccccc2)c2ccccc2)CC1
2,Compound NOT metabolized,CCOC(=O)[C@H](CCc1ccccc1)N[C@@H](C)C(=O)N1Cc2ccccc2C[C@H]1C(=O)O
3,Compound NOT metabolized,CCN1CCCC1CNC(=O)c1cc(S(=O)(=O)CC)c(N)cc1OC (stereo not given) [AMISULPRIDE]
4,Compound NOT metabolized,CC(C)NCC(O)COc1ccc(CC(N)=O)cc1 (stereo not given) [ATENOLOL]

# Assay: as §1, with “WLS-039” for “WLS-069”, “ERS12561746” for “ERS12561748”
# Settings: 2 µM
row,Bacterial Biotransformation,SMILES
1,Compound metabolized,CN1CCC(OC(c2ccccc2)c2ccccc2)CC1
2,Compound metabolized,CCOC(=O)[C@H](CCc1ccccc1)N[C@@H](C)C(=O)N1Cc2ccccc2C[C@H]1C(=O)O
3,Compound NOT metabolized,CCN1CCCC1CNC(=O)c1cc(S(=O)(=O)CC)c(N)cc1OC (stereo not given) [AMISULPRIDE]
4,Compound NOT metabolized,CC(C)NCC(O)COc1ccc(CC(N)=O)cc1 (stereo not given) [ATENOLOL]

# Settings: human gut metagenome, 24 h, 2 µM
# Remark: another data set of the same source
row,Bacterial Biotransformation,SMILES
1,Compound NOT metabolized,CN1CCC(OC(c2ccccc2)c2ccccc2)CC1
2,Compound metabolized,CCOC(=O)[C@H](CCc1ccccc1)N[C@@H](C)C(=O)N1Cc2ccccc2C[C@H]1C(=O)O
3,Compound NOT metabolized,CCN1CCCC1CNC(=O)c1cc(S(=O)(=O)CC)c(N)cc1OC (stereo not given) [AMISULPRIDE]
4,Compound NOT metabolized,CC(C)NCC(O)COc1ccc(CC(N)=O)cc1 (stereo not given) [ATENOLOL]

# Assay: as §1, with “WLS-038” for “WLS-069”, “ERS12561745” for “ERS12561748”
# Settings: 2 µM
row,Bacterial Biotransformation,SMILES
1,Compound NOT metabolized,CN1CCC(OC(c2ccccc2)c2ccccc2)CC1
2,Compound metabolized,CCOC(=O)[C@H](CCc1ccccc1)N[C@@H](C)C(=O)N1Cc2ccccc2C[C@H]1C(=O)O
3,Compound NOT metabolized,CCN1CCCC1CNC(=O)c1cc(S(=O)(=O)CC)c(N)cc1OC (stereo not given) [AMISULPRIDE]
4,Compound NOT metabolized,CC(C)NCC(O)COc1ccc(CC(N)=O)cc1 (stereo not given) [ATENOLOL]

# Settings: human gut metagenome, 24 h, 2 µM
# Remark: another data set of the same source
row,Bacterial Biotransformation,SMILES
1,Compound metabolized,CN1CCC(OC(c2ccccc2)c2ccccc2)CC1
2,Compound metabolized,CCOC(=O)[C@H](CCc1ccccc1)N[C@@H](C)C(=O)N1Cc2ccccc2C[C@H]1C(=O)O
3,Compound NOT metabolized,CCN1CCCC1CNC(=O)c1cc(S(=O)(=O)CC)c(N)cc1OC (stereo not given) [AMISULPRIDE]
4,Compound NOT metabolized,CC(C)NCC(O)COc1ccc(CC(N)=O)cc1 (stereo not given) [ATENOLOL]

# Settings: human gut metagenome, 24 h, 2 µM
# Remark: another data set of the same source
row,Bacterial Biotransformation,SMILES
1,Compound NOT metabolized,CN1CCC(OC(c2ccccc2)c2ccccc2)CC1
2,Compound metabolized,CCOC(=O)[C@H](CCc1ccccc1)N[C@@H](C)C(=O)N1Cc2ccccc2C[C@H]1C(=O)O
3,Compound metabolized,CCN1CCCC1CNC(=O)c1cc(S(=O)(=O)CC)c(N)cc1OC (stereo not given) [AMISULPRIDE]
4,Compound NOT metabolized,CC(C)NCC(O)COc1ccc(CC(N)=O)cc1 (stereo not given) [ATENOLOL]

# Settings: human gut metagenome, 24 h, 2 µM
# Remark: another data set of the same source
row,Bacterial Biotransformation,SMILES
1,Compound metabolized,CN1CCC(OC(c2ccccc2)c2ccccc2)CC1
2,Compound metabolized,CCOC(=O)[C@H](CCc1ccccc1)N[C@@H](C)C(=O)N1Cc2ccccc2C[C@H]1C(=O)O
3,Compound NOT metabolized,CCN1CCCC1CNC(=O)c1cc(S(=O)(=O)CC)c(N)cc1OC (stereo not given) [AMISULPRIDE]
4,Compound NOT metabolized,CC(C)NCC(O)COc1ccc(CC(N)=O)cc1 (stereo not given) [ATENOLOL]

# Assay: as §1, with “Z-002” for “WLS-069”, “rabbit” for “human”, “ERS12561802” for “ERS12561748”
# Settings: 2 µM
row,Bacterial Biotransformation,SMILES
1,Compound NOT metabolized,CN1CCC(OC(c2ccccc2)c2ccccc2)CC1
2,Compound metabolized,CCOC(=O)[C@H](CCc1ccccc1)N[C@@H](C)C(=O)N1Cc2ccccc2C[C@H]1C(=O)O
3,Compound metabolized,CCN1CCCC1CNC(=O)c1cc(S(=O)(=O)CC)c(N)cc1OC (stereo not given) [AMISULPRIDE]
4,Compound NOT metabolized,CC(C)NCC(O)COc1ccc(CC(N)=O)cc1 (stereo not given) [ATENOLOL]

# Settings: human gut metagenome, 24 h, 2 µM
# Remark: another data set of the same source
row,Bacterial Biotransformation,SMILES
1,Compound NOT metabolized,CN1CCC(OC(c2ccccc2)c2ccccc2)CC1
2,Compound NOT metabolized,CCOC(=O)[C@H](CCc1ccccc1)N[C@@H](C)C(=O)N1Cc2ccccc2C[C@H]1C(=O)O
3,Compound NOT metabolized,CCN1CCCC1CNC(=O)c1cc(S(=O)(=O)CC)c(N)cc1OC (stereo not given) [AMISULPRIDE]
4,Compound NOT metabolized,CC(C)NCC(O)COc1ccc(CC(N)=O)cc1 (stereo not given) [ATENOLOL]

# Settings: human gut metagenome, 24 h, 2 µM
# Remark: another data set of the same source
row,Bacterial Biotransformation,SMILES
1,Compound NOT metabolized,CN1CCC(OC(c2ccccc2)c2ccccc2)CC1
2,Compound metabolized,CCOC(=O)[C@H](CCc1ccccc1)N[C@@H](C)C(=O)N1Cc2ccccc2C[C@H]1C(=O)O
3,Compound NOT metabolized,CCN1CCCC1CNC(=O)c1cc(S(=O)(=O)CC)c(N)cc1OC (stereo not given) [AMISULPRIDE]
4,Compound metabolized,CC(C)NCC(O)COc1ccc(CC(N)=O)cc1 (stereo not given) [ATENOLOL]

# Assay: as §1, with “Z-017” for “WLS-069”, “mouse” for “human”, “ERS12561816” for “ERS12561748”
# Settings: 2 µM
row,Bacterial Biotransformation,SMILES
1,Compound NOT metabolized,CN1CCC(OC(c2ccccc2)c2ccccc2)CC1
2,Compound NOT metabolized,CCOC(=O)[C@H](CCc1ccccc1)N[C@@H](C)C(=O)N1Cc2ccccc2C[C@H]1C(=O)O
3,Compound NOT metabolized,CCN1CCCC1CNC(=O)c1cc(S(=O)(=O)CC)c(N)cc1OC (stereo not given) [AMISULPRIDE]
4,Compound NOT metabolized,CC(C)NCC(O)COc1ccc(CC(N)=O)cc1 (stereo not given) [ATENOLOL]

# Assay: as §1, with “Z-001” for “WLS-069”, “mouse” for “human”, “ERS12561801” for “ERS12561748”
# Settings: 2 µM
row,Bacterial Biotransformation,SMILES
1,Compound NOT metabolized,CN1CCC(OC(c2ccccc2)c2ccccc2)CC1
2,Compound NOT metabolized,CCOC(=O)[C@H](CCc1ccccc1)N[C@@H](C)C(=O)N1Cc2ccccc2C[C@H]1C(=O)O
3,Compound NOT metabolized,CCN1CCCC1CNC(=O)c1cc(S(=O)(=O)CC)c(N)cc1OC (stereo not given) [AMISULPRIDE]
4,Compound NOT metabolized,CC(C)NCC(O)COc1ccc(CC(N)=O)cc1 (stereo not given) [ATENOLOL]
